Values quoted from earlier work, collected in patent US20100137357A1, “COMPOSITIONS AND METHODS FOR HYPERHIDROSIS” (priority 2008, published 2010).

System: serous and seromucous glands
Details: humans, applied locally to the nasal mucosa

For `CC(C)[N+]1(C)[C@@H]2CC[C@H]1CC(OC(=O)C(CO)c1ccccc1)C2.[Br-]` (stereo partly shown) [ipratropium bromide], the “secretions from the serous and seromucous glands” value is listed as “inhibits secretions”.
